# US7897636B2, “Sulfamide derivative useful for the treatment of epilepsy” (Janssen Pharmaceutica NV, priority 2007, dated 2011)
# System: MES-induced seizure
# Assay: Maximal Electroshock Test (MES), anticonvulsant activity
# Assay type: in vivo, CF-1 male albino mice
# Experimental: Anticonvulsant activity was determined using the MES test, run according to the procedure described in detail below. Swinyard E A, Woodhead J H, White H S, Franklin M R. Experimental selection, quantification, and evaluation of anticonvulsants. In Levy R H, et al., eds. Antiepileptic Drugs. 3rd ed. New York: Raven Press, 1989:85-102 CF-1 male albino mice (25-35 g) were randomly selected into control and test groups, with the animals dosed with vehicle or test compound, at varying time-points and concentrations, respectively. On the study date, the mice were dosed by intraperitoneal (i.p.) injection with vehicle (30% Solutol) or test compound (50-250 mg/kg). Seizures were induced by trans-corneal electric shock using a 60-Hz alternating current, 50 mA, delivered for 0.2 sec. The mice in the test groups were subjected to electrical stimulus at time intervals between 15 minutes and 4 hours following administration of test compound. […] The test was complete when the entire course of the convulsion has been observed (typically, less than 1 minute after electrical stimulation). […] The ED50 value of the test compounds was the calculated dose required to block the hind limb tonic-extensor component of the MES-induced seizure in 50% of the rodents tested. […] Representative compounds of the present invention were tested according to the procedure described above, with results as listed in Table 1 below. Results are listed as (number of mice with full body tonic extension prevented)/(total number of mice tested) (@ a given time). ED50 values were determined at the time of peak effect (1 hr, Table 1).
# [1] = 100 mg/kg i.p., 1.0 Hrs after dosing
# [2] = 100 mg/kg i.p., 2 Hrs after dosing
# [3] = 200 mg/kg i.p., 0.25 Hrs after dosing
# [4] = 200 mg/kg i.p., 0.50 Hrs after dosing
# [5] = 200 mg/kg i.p., 1.0 Hrs after dosing
# [6] = 200 mg/kg i.p., 2 Hrs after dosing
# [7] = 200 mg/kg i.p., 4 Hrs after dosing
Compound,MES Activity: (number of mice with full body tonic extension prevented)/(total number of mice tested) [1],MES Activity: (number of mice with full body tonic extension prevented)/(total number of mice tested) [2],MES Activity: (number of mice with full body tonic extension prevented)/(total number of mice tested) [3],MES Activity: (number of mice with full body tonic extension prevented)/(total number of mice tested) [4],MES Activity: (number of mice with full body tonic extension prevented)/(total number of mice tested) [5],MES Activity: (number of mice with full body tonic extension prevented)/(total number of mice tested) [6],MES Activity: (number of mice with full body tonic extension prevented)/(total number of mice tested) [7],"ED50 (Mus musculus, ip, 1 h, mice, i.p., at time of peak effect (1 hr), probit analysis, read-out: ED50 (dose required to block the hind limb tonic-extensor component of the MES-induced seizure in 50% of the rodents)) [mg/kg]"
"NS(=O)(=O)NCc1c[s+]([O-])c2ccccc12 (single isomer, unassigned; (+)) [(+)-enantiomer, N-[(1-oxidobenzo[b]thien-3-yl)methyl]-sulfamide]",1/4,0/4,0/3,4/5,5/5,5/5,1/5,127
"NS(=O)(=O)NCc1c[s+]([O-])c2ccccc12 (single isomer, unassigned; (-)) [(−)-enantiomer, N-[(1-oxidobenzo[b]thien-3-yl)methyl]-sulfamide]",2/4,1/4,1/4,2/5,5/5,5/5,1/5,–
